These results are taken from ChEMBL document CHEMBL5532685 (J Nat Prod, 2024).

The target in experiment [1] is Programmed cell death protein 1/Programmed cell death 1 ligand 1 (Homo sapiens, UniProt Q15116+Q9NZQ7). In words: Inhibition of PD-1/PD-L1 (unknown origin) protein protein interaction. Type of experiment: protein-complex assay.
Another experiment addresses Procathepsin L (Homo sapiens, UniProt P07711). In words: Inhibition of human cathepsin L.
Another experiment deals with Prothrombin (Homo sapiens, UniProt P00734). As to the kind of experiment: Inhibition of human thrombin.
Experiment [2] has as its target Replicase polyprotein 1ab (Severe acute respiratory syndrome coronavirus 2, UniProt P0DTD1). As to the kind of experiment: Inhibition of SARS-CoV2 MPro using Dabcyl-KTSAVLQSGFRKME-Edans as substrate by fluorescence based analysis.
Experiment [3] deals with Spike glycoprotein/Angiotensin-converting enzyme 2 (Severe acute respiratory syndrome coronavirus 2, UniProt P0DTC2+Q9BYF1). As to the kind of experiment: Inhibition of His-tagged SARS-CoV2 USA-WA1/2020 spike-RBD/biotinylated Fc-tagged ACE2 (unknown origin) protein protein interaction incubated for 1 hr by Alphascreen assay.
Spike glycoprotein/Angiotensin-converting enzyme 2, sequence (Q9BYF1 18-805 limits assumed, other chains not shown): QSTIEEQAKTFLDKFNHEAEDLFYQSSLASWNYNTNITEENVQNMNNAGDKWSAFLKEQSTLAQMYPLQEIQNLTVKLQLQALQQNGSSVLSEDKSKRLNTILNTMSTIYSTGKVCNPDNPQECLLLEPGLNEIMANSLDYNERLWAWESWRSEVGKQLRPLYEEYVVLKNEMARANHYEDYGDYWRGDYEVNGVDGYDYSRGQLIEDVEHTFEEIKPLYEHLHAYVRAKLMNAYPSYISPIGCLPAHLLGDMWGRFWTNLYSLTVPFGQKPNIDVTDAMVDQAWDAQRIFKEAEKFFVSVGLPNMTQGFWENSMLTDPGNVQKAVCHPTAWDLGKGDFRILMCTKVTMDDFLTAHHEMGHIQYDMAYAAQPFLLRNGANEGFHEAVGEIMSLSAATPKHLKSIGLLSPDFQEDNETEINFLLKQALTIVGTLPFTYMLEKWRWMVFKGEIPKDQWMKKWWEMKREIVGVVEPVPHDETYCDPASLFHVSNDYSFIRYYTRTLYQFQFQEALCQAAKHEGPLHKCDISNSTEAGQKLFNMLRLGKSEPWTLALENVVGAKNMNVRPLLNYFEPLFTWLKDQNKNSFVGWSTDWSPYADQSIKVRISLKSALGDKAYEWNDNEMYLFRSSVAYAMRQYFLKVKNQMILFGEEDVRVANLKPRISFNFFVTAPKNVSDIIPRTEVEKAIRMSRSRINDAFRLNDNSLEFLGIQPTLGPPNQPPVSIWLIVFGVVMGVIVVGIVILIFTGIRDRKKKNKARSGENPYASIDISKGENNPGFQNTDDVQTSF

Procathepsin L, sequence (P07711 whole entry): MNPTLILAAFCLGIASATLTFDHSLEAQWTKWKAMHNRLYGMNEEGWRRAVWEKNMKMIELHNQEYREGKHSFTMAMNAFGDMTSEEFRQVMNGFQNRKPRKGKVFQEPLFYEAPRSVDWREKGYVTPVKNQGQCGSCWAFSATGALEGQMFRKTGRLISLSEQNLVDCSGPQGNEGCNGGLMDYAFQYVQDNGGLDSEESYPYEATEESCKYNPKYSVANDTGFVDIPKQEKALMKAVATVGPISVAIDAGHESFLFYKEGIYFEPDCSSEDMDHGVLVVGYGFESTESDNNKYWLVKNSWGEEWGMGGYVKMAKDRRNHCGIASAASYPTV
Programmed cell death protein 1/Programmed cell death 1 ligand 1, sequence (Q15116 whole entry): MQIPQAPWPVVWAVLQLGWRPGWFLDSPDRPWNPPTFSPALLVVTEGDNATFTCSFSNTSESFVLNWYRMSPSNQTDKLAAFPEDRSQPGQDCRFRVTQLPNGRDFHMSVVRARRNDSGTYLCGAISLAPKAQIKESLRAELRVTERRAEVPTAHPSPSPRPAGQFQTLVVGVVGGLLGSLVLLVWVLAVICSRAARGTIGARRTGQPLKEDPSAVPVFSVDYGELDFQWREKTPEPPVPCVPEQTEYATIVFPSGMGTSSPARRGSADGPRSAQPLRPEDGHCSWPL
Programmed cell death protein 1/Programmed cell death 1 ligand 1, sequence (Q9NZQ7 whole entry): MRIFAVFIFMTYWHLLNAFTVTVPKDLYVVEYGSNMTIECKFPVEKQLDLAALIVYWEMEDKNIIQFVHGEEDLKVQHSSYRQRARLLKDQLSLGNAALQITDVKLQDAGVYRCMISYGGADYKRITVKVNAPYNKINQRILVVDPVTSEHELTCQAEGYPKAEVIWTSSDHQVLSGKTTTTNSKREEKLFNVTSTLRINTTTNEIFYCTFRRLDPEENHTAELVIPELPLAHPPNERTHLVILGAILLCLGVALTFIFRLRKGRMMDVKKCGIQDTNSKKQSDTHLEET

The IC50 is the concentration needed to halve the response being measured. A higher IC50 goes with weaker potency in that assay. For `CCCCCCCCCC(C)CCC(C)C(=O)O` (configuration not stated), the values for the half-inhibitory concentration (IC50) (in experiment [1]; against Procathepsin L; against Prothrombin) were greater than 390 µM, 218 µM and greater than 390 µM, respectively.
Turning to `CCCCCCCCCC(C)CCC(C)C(=O)OC` (configuration not stated), the IC50 in experiment [2] and in experiment [3] was greater than 370 µM throughout.
As for `CCCCCCCCCC(C)CCC(C)C(=O)OCc1ccccc1` (configuration not stated), the half-inhibitory concentration (IC50) in experiment [2] and in experiment [3] was greater than 289 µM in each case.
